# How the values were obtained:
# Sprague-Dawley rats = experiment: Forced swim test (FST) in rats; assay type: in vivo, rat; conditions: for Immobility time (s) (mean ± SEM): i.g.
# DD model mice [1] = experiment: FST in constant darkness (DD) model mice; assay type: in vivo, mouse; conditions: for Immobility time (s) (mean ± SEM): oral once a day for 1 week
# Experimental: (§1) Kunming mice (Certificate Number: A4CXK(Chuan)2003-16) from the Institute of Experimental Animals, People's Hospital of Sichuan Province, were used. They were 3-4 weeks old at the beginning of the experiments and weighed 25-30 g. ORG was prepared as described in Example 1. Animals were divided into experimental groups with different doses, vehicle control groups, and an imipramine group (Sigma, Batch No. 106k1588) as positive control.
# (§2) DD model in mice: Mice were kept under 24 h continuous dark conditions. The replacement of padding, addition of food and water, and other operations were undertaken in the condition that the intensity of red light was less than 1.0 lux. The period of this condition lasted for 28 days. In the last week, ORG was administered orally once a day for 1 week. The FST and TST were carried out 30 min after the last administration. Methods and data analysis were as described above.
# DD model mice [2] = experiment: TST in constant darkness (DD) model mice; assay type: in vivo, mouse; conditions: for Immobility time (s) (mean ± SEM): oral once a day for 1 week
# Experimental: as §1, §2
# SD model mice = experiment: FST in sleep deprivation (SD) model mice; assay type: in vivo, mouse
# Experimental: as §1, with “experiment” for “experimental”, “doses, a” for “doses,”, “group,” for “groups,”, “1061c1588)” for “106k1588)”
# SD model: A modified method with multiple platforms in a water environment was used to establish the SD model in mice. Mice on the platforms were free to eat and drink. However, if it fell asleep, it fell into the water because of the loss of muscle tone. The fallen animal climbed onto the platform again via a tilt pole which propped up the platforms. After 72 h of sleep deprivation, ORG was administered orally 24 h and 5 h before the FST started. The immobility time of animals were recorded. Methods and data analysis were as described above.
# rats [3] = experiment: Footshock-induced freezing behavior test in rats; assay type: in vivo, rat; conditions: i.p. 24 h and 5 h before test
# Experimental: as §1, with “experiment” for “experiments”, “drug administration” for “experimental”, “doses of ORG, a” for “doses,”, “group,” for “groups,”, “a diazepam” for “an imipramine”, “(Jinyao Ltd. Co.,” for “(Sigma,”
# (§3) Footshock-induced freezing behavior: Animals received an i.p. injection of ORG or vehicle 24 h and 5 h before being placed in a standard conditioning chamber (Med Associates, USA) for a 10 min training session. Two, 4, 6, 8, and 10 min after the onset of the session, a footshock (0.8 mA, 2 s) was delivered through the grid floor of the chamber. The freezing time during the last 5 min were recorded. Rats were placed in the chamber again without footshock 24 h after the first training, and the freezing time was recorded.
# (§4) Data analysis: The results of the test are expressed as mean±SEM. One-way ANOVA was used followed by the LSD test with SPSS 11 software. The significance level was set at P<0.05.
# rats [4] = experiment: Conditioned fear stress-induced freezing behavior test in rats; assay type: in vivo, rat; conditions: i.p. 24 h and 5 h before footshocks, re-exposure 24 h later
# Experimental: as §1, with “experiment” for “experiments”, “drug administration” for “experimental”, “doses of ORG, a” for “doses,”, “group,” for “groups,”, “a diazepam” for “an imipramine”, “(Jinyao Ltd. Co.,” for “(Sigma,”
# as §3, §4
# serum corticosterone = experiment: Serum corticosterone level (radioimmunoassay), non-stressed and elevated platform stressed rats; assay type: in vivo, rat
# Kunming mice = experiment: Forced swim test (FST) in mice
# [5] = DD mice, test 30 min after last dose, 1.25 mg/kg
# [6] = Mus musculus, DD model mice, ORG oral
structure (smiles),measurement,setting,value
"Cc1cc(O)cc(OC2OC(CO)C(O)C(O)C2O)c1 [ORG, orcinol-1-O-β-D-glucopyranoside]",dose of the best efficacy,Sprague-Dawley rats; ORG administered orally,4 mg/kg
same,ED50,"Sprague-Dawley rats; Rattus norvegicus, po, ORG administered orally",~0.22 mg/kg
same,Immobility time (s) (mean ± SEM),"Sprague-Dawley rats; 0.0625 mg/kg, given at 0 and 19 h after pre-test swim",187.20 ± 11.97 s
same,Immobility time (s) (mean ± SEM),Sprague-Dawley rats; 0.125 mg/kg,181.50 ± 8.19 s
same,Immobility time (s) (mean ± SEM),Sprague-Dawley rats; 0.1875 mg/kg,138.90 ± 13.31 s
same,Immobility time (s) (mean ± SEM),Sprague-Dawley rats; 0.25 mg/kg,121.05 ± 9.44 s
same,Immobility time (s) (mean ± SEM),Sprague-Dawley rats; 0.5 mg/kg,113.70 ± 6.74 s
same,Immobility time (s) (mean ± SEM),Sprague-Dawley rats; 1 mg/kg,96.87 ± 7.40 s
same,Immobility time (s) (mean ± SEM),Sprague-Dawley rats; 2 mg/kg,91.60 ± 7.06 s
same,Immobility time (s) (mean ± SEM),Sprague-Dawley rats; 4 mg/kg,84.40 ± 9.20 s
same,Immobility time (s) (mean ± SEM),Sprague-Dawley rats; 8 mg/kg,94.30 ± 9.86 s
same,Immobility time (s) (mean ± SEM),Sprague-Dawley rats; 16 mg/kg,91.40 ± 11.36 s
same,Immobility time (s) (mean ± SEM),Sprague-Dawley rats; 32 mg/kg,107.26 ± 10.74 s
same,Immobility time (s) (mean ± SEM),Sprague-Dawley rats; 64 mg/kg,105.90 ± 19.77 s
same,Immobility time (s) (mean ± SEM),Sprague-Dawley rats; 128 mg/kg,103.00 ± 17.42 s
same,therapeutic index = TD50÷ED50,DD model mice [1]; DD mice,> 1182
same,Immobility time (s) (mean ± SEM),"DD model mice [1]; DD mice, 2.5 mg/kg",174.27 ± 11.89 s
same,Immobility time (s) (mean ± SEM),"DD model mice [1]; DD mice, 5 mg/kg",161.70 ± 14.89 s
same,Immobility time (s) (mean ± SEM),"DD model mice [1]; DD mice, 10 mg/kg",151.86 ± 8.89 s
same,Immobility time (s) (mean ± SEM),"DD model mice [1]; DD mice, 40 mg/kg",156.60 ± 13.86 s
same,Immobility time (s) (mean ± SEM),DD model mice [1]; [5],180.27 ± 10.36 s
same,dose of the best efficacy,"DD model mice [1]; DD model mice, ORG oral",10 mg/kg
same,ED50,DD model mice [1]; [6],~1.48 mg/kg
same,therapeutic index = TD50÷ED50,DD model mice [2]; DD mice,> 1000
same,Immobility time (s) (mean ± SEM),"DD model mice [2]; DD mice, 5 mg/kg",146.30 ± 11.66 s
same,Immobility time (s) (mean ± SEM),"DD model mice [2]; DD mice, 10 mg/kg",145.31 ± 12.41 s
same,Immobility time (s) (mean ± SEM),"DD model mice [2]; DD mice, 20 mg/kg",140.69 ± 14.138 s
same,Immobility time (s) (mean ± SEM),DD model mice [2]; [5],171.20 ± 13.02 s
same,dose of the best efficacy,"DD model mice [2]; DD model mice, ORG oral",20 mg/kg
same,ED50,DD model mice [2]; [6],~1.75 mg/kg
same,dose of the best efficacy,"SD model mice; FST, SD model mice, ORG oral twice",10 mg/kg
same,ED50,"SD model mice; Mus musculus, FST, SD model mice, ORG oral twice",~3.79 mg/kg
same,therapeutic index = TD50÷ED50,"SD model mice; SD mice, FST",> 462
same,Immobility time (s) (mean ± SEM),"SD model mice; SD model mice (72 h sleep deprivation), oral 24 h and 5 h before FST, 1.25 mg/kg",198.00 ± 11.43 s
same,Immobility time (s) (mean ± SEM),"SD model mice; SD model mice, 24 h and 5 h before FST, 7.5 mg/kg",153.00 ± 11.83 s
same,Immobility time (s) (mean ± SEM),"SD model mice; SD model mice, oral 24 h and 5 h before FST, 2.5 mg/kg",177.67 ± 15.95 s
same,Immobility time (s) (mean ± SEM),"SD model mice; SD model mice, oral 24 h and 5 h before FST, 5 mg/kg",160.80 ± 11.64 s
same,Immobility time (s) (mean ± SEM),"SD model mice; SD model mice, oral 24 h and 5 h before FST, 10 mg/kg",148.23 ± 7.80 s
same,Immobility time (s) (mean ± SEM),"SD model mice; SD model mice, oral 24 h and 5 h before FST, 20 mg/kg",162.67 ± 9.27 s
same,Duration of freezing (s) (mean ± S.E.),rats [3]; 5 mg/kg,203.90 ± 34.09 s
same,Duration of freezing (s) (mean ± S.E.),rats [3]; 20 mg/kg,100.70 ± 21.78 s
same,Duration of freezing (s) (mean ± SEM),rats [4]; 5 mg/kg,310.30 ± 66.19 s
same,Duration of freezing (s) (mean ± SEM),rats [4]; 20 mg/kg,95.00 ± 17.73 s
same,Concentration of serum corticosterone (ng/ml) (mean ± SEM),"serum corticosterone; non-stress rats, i.p., 3.5 mg/kg",166.06 ± 41.90 ng/mL
same,Concentration of serum corticosterone (ng/ml) (mean ± SEM),"serum corticosterone; non-stress rats, i.p., 14 mg/kg",70.04 ± 14.75 ng/mL
same,Concentration of serum corticosterone (ng/ml) (mean ± SEM),"serum corticosterone; non-stress rats, i.p., 28 mg/kg",63.13 ± 22.21 ng/mL
same,Concentration of serum corticosterone (ng/ml) (mean ± SEM),"serum corticosterone; non-stress rats, i.p., blood 1 h after injection, 0.875 mg/kg",209.02 ± 52.77 ng/mL
same,Concentration of serum corticosterone (ng/ml) (mean ± SEM),"serum corticosterone; stress rats (elevated platform 30 min, 1 h after i.p. injection), 0.875 mg/kg",349.85 ± 61.75 ng/mL
same,Concentration of serum corticosterone (ng/ml) (mean ± SEM),"serum corticosterone; stress rats, i.p., 3.5 mg/kg",263.63 ± 49.14 ng/mL
same,Concentration of serum corticosterone (ng/ml) (mean ± SEM),"serum corticosterone; stress rats, i.p., 14 mg/kg",237.63 ± 32.45 ng/mL
same,Concentration of serum corticosterone (ng/ml) (mean ± SEM),"serum corticosterone; stress rats, i.p., 28 mg/kg",137.41 ± 26.84 ng/mL
same,dose of the best efficacy,"Kunming mice; FST mice, ORG i.g. 24 h and 5 h before test",3 mg/kg
same,Immobility time (s) (mean ± SEM),"Kunming mice; FST mice, i.g. 24 h and 5 h before test, 0.093 mg/kg",169.35 ± 4.32 s
same,Immobility time (s) (mean ± SEM),"Kunming mice; FST mice, i.g., 0.186 mg/kg",155.30 ± 9.19 s
same,Immobility time (s) (mean ± SEM),"Kunming mice; FST mice, i.g., 0.3725 mg/kg",137.57 ± 6.41 s
same,Immobility time (s) (mean ± SEM),"Kunming mice; FST mice, i.g., 0.75 mg/kg",139.45 ± 7.04 s
same,Immobility time (s) (mean ± SEM),"Kunming mice; FST mice, i.g., 1.5 mg/kg",127.23 ± 6.63 s
same,Immobility time (s) (mean ± SEM),"Kunming mice; FST mice, i.g., 3 mg/kg",114.41 ± 6.23 s
same,Immobility time (s) (mean ± SEM),"Kunming mice; FST mice, i.g., 6 mg/kg",129.76 ± 5.99 s
same,Immobility time (s) (mean ± SEM),"Kunming mice; FST mice, i.g., 12 mg/kg",122.71 ± 5.56 s
same,Immobility time (s) (mean ± SEM),"Kunming mice; FST mice, i.g., 24 mg/kg",121.57 ± 6.13 s
same,Immobility time (s) (mean ± SEM),"Kunming mice; FST mice, i.g., 48 mg/kg",135.36 ± 4.60 s
same,Immobility time (s) (mean ± SEM),"Kunming mice; FST mice, i.g., 96 mg/kg",145.34 ± 5.39 s
same,Immobility (% NS) (mean ± SEM),"Kunming mice; FST mice, oral 3 mg/kg twice in 24 h, recorded 5 h after last treatment (Table 7)",64.03 ± 7.20 % NS
same,onset of antidepressant effect after the second administration,"Kunming mice; FST mice, oral 3 mg/kg twice, 19 h apart",2.5 h
same,maintenance of antidepressant effect,"Kunming mice; FST mice, oral 3 mg/kg twice, 19 h apart, time after second administration",at least 72 h
same,Immobility (% NS) (mean ± SEM),"Kunming mice; FST mice, oral 3 mg/kg, 1 administration in 24 h, recorded 5 h after last treatment",83.57 ± 6.66 % NS
same,Immobility (% NS) (mean ± SEM),"Kunming mice; FST mice, oral 3 mg/kg, 2 administrations in 24 h, recorded 5 h after last treatment (Table 6)",64.98 ± 5.96 % NS
same,Immobility (% NS) (mean ± SEM),"Kunming mice; FST mice, oral 3 mg/kg, 3 administrations in 24 h, recorded 5 h after last treatment",65.65 ± 9.67 % NS
same,Immobility (% NS) (mean ± SEM),"Kunming mice; FST mice, oral 3 mg/kg, 4 administrations in 24 h, recorded 5 h after last treatment",89.81 ± 6.50 % NS
same,Immobility (% NS) (mean ± SEM),"Kunming mice; FST mice, oral 3 mg/kg, 5 administrations in 24 h, recorded 5 h after last treatment",91.26 ± 5.93 % NS
same,Immobility (% NS) (mean ± SEM),"Kunming mice; FST mice, oral 6 mg/kg once in 24 h, recorded 5 h after treatment (Table 7)",80.70 ± 4.64 % NS
same,Immobility (% NS) (mean ± SEM),"Kunming mice; FST mice, oral, dose 6 mg/kg (3 mg/kg twice, 19 h apart), 2 weeks after last administration",99.54 ± 5.54 % NS
same,Immobility (% NS) (mean ± SEM),"Kunming mice; FST mice, oral, dose 6 mg/kg (3 mg/kg twice, 19 h apart), 2.5 h after last administration",73.63 ± 4.21 % NS
same,Immobility (% NS) (mean ± SEM),"Kunming mice; FST mice, oral, dose 6 mg/kg (3 mg/kg twice, 19 h apart), 5 h after last administration",71.92 ± 6.05 % NS
same,Immobility (% NS) (mean ± SEM),"Kunming mice; FST mice, oral, dose 6 mg/kg (3 mg/kg twice, 19 h apart), 24 h after last administration",62.83 ± 6.59 % NS
same,Immobility (% NS) (mean ± SEM),"Kunming mice; FST mice, oral, dose 6 mg/kg (3 mg/kg twice, 19 h apart), 72 h after last administration",77.33 ± 6.07 % NS
same,ED50,Kunming mice; Mus musculus,~0.22 mg/kg
same,therapeutic index (TI) = TD50÷ED50,"Kunming mice; mice, FST",> 7955
